Experimental data reported in PMC4368603, “Cardiac Contractility Structure-Activity Relationship and Ligand-Receptor Interactions; the Discovery Of Unique and Novel Molecular Switches in Myosuppressin Signaling” (PLoS ONE, 2015).
“And” between values parts separate entries of the source, which are not always exact repeats. Identical values can stand only once. Square brackets hold non-standard residues; d marks the D form. Ends that are not written are not given here. Peptide text beside a SMILES is read from it. pGlu = O=C1CC[C@@H](C(=O)O)N1

Columns and labels:
R. prolixus heart = format: in vivo, Rhodnius prolixus; conditions: for EC50: 5th instar semi-intact preparation, 25 ± 2°C, heart rate as % of saline, non-linear regression, N = 10 animals per condition, read-out: EC50, dose-dependent decrease of R. prolixus heart rate (cardiac contractility)
Method: R. prolixus were maintained at 28°C under high humidity in a cycle of 12h:12h (L:D). The insects used were 5th instar 2–3 weeks post-ecdysis fed on chicken blood.
Fifth instar R. prolixus were placed ventral surface down on a dish with paraffin wax and dissected under physiological saline. Segments four to seven from the dorsal abdominal cuticle were removed using minuten pins leaving the dorsal vessel exposed. The semi-intact preparation was equilibrated in 20 μl saline for 20 minutes at room temperature (25° ± 2°C), replacing the fluid with fresh saline every five minutes. Heart rate was measured under saline after the final bath, counting the number of contractions in one minute. This counting was replicated three times for each preparation, and the results of the three countings were averaged. After this, the saline was removed and replaced with an equal volume of solution containing a peptide. The heart rate was measured and expressed as % of the control (saline). Ten animals were analyzed for control and for each experiment. The investigator who performed the bioassay was unaware of the peptide structures being tested.
Dose response curves were generated and the effective concentrations at half-maximal response (EC50) values were calculated using a non-linear regression with GraphPad Prism version 6.03. Activities of RhpMS, DrmMS, and analogs were compared to saline, set at 100%, using Single Factor ANOVA to calculate p values; significance was set at p ≤ 0.05.

gut = gut motility SAR; cited from earlier work
Excerpt: (§1) Table 3 DrmMS and analogs: structures and activities. | column: Gut || [6–10]DrmMS was the heart rate active core, yet [4–10]DrmMS was the gut motility active core. […] We believed DrmMS-DrmMS-R1 and DrmMS-DrmMS-R2 interactions would reflect our SAR data. N-terminal truncated and alanyl-substituted analogs (Table 3) were docked to the receptors; additional data are available in Supporting Information. In DrmMS docked to DrmMS-R1 (Fig. 4, Table 4), F7 made multipl ...

heart = conditions: cardiac contractility / heart rate SAR; cited from earlier work
Excerpt: as §1, with “Heart” for “Gut”

Molecule | EC50 (R. prolixus heart) [nM] | Heart Rate Mean ± S.E.M., percent of saline (R. prolixus heart; peptide at 1 μM, saline = 100%, ten animals per experiment) | Gut activity (gut) | Heart activity (heart)
CC[C@H](C)[C@H](NC(=O)[C@H](CC(=O)O)NC(=O)[C@@H]1CCC(=O)N1)C(=O)N[C@@H](CC(=O)O)C(=O)N[C@@H](Cc1c[nH]cn1)C(=O)N[C@H](C(=O)N[C@@H](Cc1ccccc1)C(=O)N[C@@H](CCSC)C(=O)N[C@@H](CCCNC(=N)N)C(=O)N[C@@H](Cc1ccccc1)C(N)=O)C(C)C [RhpMS] ([pGlu]DIDHVFMRF-NH2) | 140 | 4 % of saline and 4 ± 3 % of saline | – | –
DHVFLRF-NH2 [[4–10]DrmMS, N-terminal truncated DrmMS analog DHVFLRF-NH2] | – | – | active core | agonist
DHVFMRF-NH2 [[4–10]RhpMS] | 32 | – | – | –
FLRF-NH2 [[7–10]DrmMS, N-terminal truncated DrmMS analog FLRF-NH2] | – | – | inactive | inactive
HVFLRF-NH2 [[5–10]DrmMS, N-terminal truncated DrmMS analog HVFLRF-NH2] | – | – | antagonist | agonist
TDVDHVFARF-NH2 [[A8] DrmMS, alanyl-substituted DrmMS analog […]-NH2] | – | – | inactive | agonist
TDVDHVFLRF-NH2 [DrmMS] | 50 | – | – | –
VFLRF-NH2 [[6–10]DrmMS, N-terminal truncated DrmMS analog VFLRF-NH2] | – | – | inactive | active core
Y-T(Bpa)VDHVFLRF-NH2 [Y-Bpa2DrmMS] | – | – | agonist | agonist
